Reference: patent US20130150340A1, “6-(4-Hydroxy-phenyl)-1H-pyrazolo[3,4-b]pyridine-4-carboxylic acid amide derivatives as kinase inhibitors” (SANOFI, priority 2011, published 2013)

target: T1, human full-length recombinant PKC βII (Homo sapiens, UniProt P05771); test: Determination of PKC βII inhibition (Caliper mobility-shift kinase assay); format: biochemical; settings: example compounds at a final concentration of 1.14 μM (±0.15 μM); 60 min incubation at 32° C.
T1 construct: Active human full-length recombinant PKC βII; purchased Invitrogen GmbH, Darmstadt, Germany
Description: Determination of PKC 3H Inhibition
PKC βII inhibition was determined according to the following protocol:
Active human full-length recombinant PKC βII and the peptide substrate, Fluorescein-RFARKGSLRQKNV, were purchased from Invitrogen GmbH, Darmstadt, Germany. Adenosine-5′-triphosphate (ATP), bovine serum albumine (BSA), dimethylsulphoxide (DMSO), 4-(2-hydroxyethyl)piperazine-1-ethanesulfonic acid (Hepes), Triton X-100, 1,2-Dioleoyl-sn-glycerol (DAG), L-α-Phosphatidyl-L-serine (PS), calcium chloride (CaCl2), and Pluronic F-68 were purchased from Sigma-Aldrich, Munich, Germany. Magnesium chloride, 1 M sodium hydroxide solution, 1M hydrochloric acid solution and EDTA were obtained from Merck Biosciences, Darmstadt, Germany.
Test compounds were diluted to three times the test concentration in buffer 1 (30 mM Hepes-NaOH, pH 7.4, 0.01% Pluronic F-68 and 3% (v/v) DMSO). The PKC βII enzyme was diluted to a concentration of 30 ng/ml in buffer 2 (30 mM Hepes-NaOH, pH 7.4, 15 mM MgCl2, 150 μM CaCl2, 150 μg/ml PS, 60 μg/ml DAG, and 0.045% (w/v) Triton X-100). The peptide substrate and ATP were diluted to concentrations of 3 μM and 120 μM, respectively, in buffer 2. Two μl of the compound solution were mixed with 2 μl of the diluted enzyme in a 384-well small volume microtiter plate (Greiner, Bio-One, Frickenhausen, Germany), and the kinase reaction was initiated by addition of 2 μl of the solution containing peptide substrate and ATP. After 60 min incubation at 32° C., the reaction was stopped by addition of 20 μl of a solution containing 130 mM Hepes-NaOH, pH 7.4, 0.0195% (v/v) Brij-35, 6.5 mM EDTA, 0.13% chip coating reagent 3 (Caliper Lifescience Inc, Hopkinton, Mass.) and 6.5% (v/v) DMSO. Phosphorylation of the substrate peptide was then detected on a Caliper 3000 instrument essentially as described by Pommereau et al (J. Biomol. Screening 2004, 9(5), […]), Separation conditions were as follows: Pressure −0.8 psi, upstream voltage −3000 V, downstream voltage −800 V. Positive controls (buffer 1 instead of compound) and negative controls (buffer 1 instead of compound and buffer 2 instead of kinase solution) were run in parallel on each plate. Fractional turnover (R) was determined as the height of the peak of the phosphorylated peptide product divided by the sum of the unphosphorylated substrate and phosphorylated product peak heights. Percent-inhibition values for the test compounds were determined using the formula
% Inhibition=100*(1−(Rcompound−Rnegative control)/(Rpositive control−Rnegative control).

T1 sequence (P05771 1-673 isoform P05771-2): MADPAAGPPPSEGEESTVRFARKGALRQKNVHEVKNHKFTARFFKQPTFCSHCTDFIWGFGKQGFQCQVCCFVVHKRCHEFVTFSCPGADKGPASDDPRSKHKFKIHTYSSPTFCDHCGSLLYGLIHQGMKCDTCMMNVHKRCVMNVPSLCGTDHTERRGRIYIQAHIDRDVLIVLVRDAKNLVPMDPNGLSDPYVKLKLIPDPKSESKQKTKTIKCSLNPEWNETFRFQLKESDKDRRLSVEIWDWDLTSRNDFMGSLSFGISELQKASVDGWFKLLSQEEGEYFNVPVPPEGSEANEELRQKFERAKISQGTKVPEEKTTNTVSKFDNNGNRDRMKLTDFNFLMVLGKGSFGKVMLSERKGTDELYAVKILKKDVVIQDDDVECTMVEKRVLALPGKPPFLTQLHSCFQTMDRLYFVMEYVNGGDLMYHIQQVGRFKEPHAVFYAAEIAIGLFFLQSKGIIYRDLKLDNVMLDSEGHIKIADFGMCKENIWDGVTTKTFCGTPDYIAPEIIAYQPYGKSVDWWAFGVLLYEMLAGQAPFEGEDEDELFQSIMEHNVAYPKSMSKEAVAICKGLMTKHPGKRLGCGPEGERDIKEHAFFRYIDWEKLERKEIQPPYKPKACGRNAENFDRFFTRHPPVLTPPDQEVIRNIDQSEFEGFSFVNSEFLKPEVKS

Row | SMILES | inhibition at 1.14 µM
1 | O=C(c1cc(-c2ccc(O)cc2)nc2[nH]ncc12)N1CCC2(CNCCO2)C1 (stereo not shown) [Example 31, [6-(4-Hydroxy-phenyl)-1H-pyrazolo[3,4-b]pyridin-4-yl]-(6-oxa-2,9-diaza-spiro[4.5]dec-2-yl)-methanone] | 53%
2 | O=C(c1cc(-c2ccc(O)cc2)nc2[nH]ncc12)N1CCC2CNCC21 (stereo not shown) [Example 34, (Hexahydro-pyrrolo[3,4-b]pyrrol-1-yl)-[6-(4-hydroxy-phenyl)-1H-pyrazolo[3,4-b]pyridin-4-yl]-methanone] | 45%
3 | O=C(N[C@@H]1CN2CCC1CC2)c1cc(-c2ccc(O)cc2)nc2[nH]ncc12 [Example 40, 6-(4-Hydroxy-phenyl)-1H-pyrazolo[3,4-b]pyridine-4-carboxylic acid-(S)-(1-Aza-bicyclo[2.2.2]oct-3-yl)amide] | 71%
4 | CN(C(=O)c1cc(-c2ccc(O)cc2)nc2[nH]ncc12)C1CCNCC1 [Example 42, 6-(4-Hydroxy-phenyl)-1H-pyrazolo[3,4-b]pyridine-4-carboxylic acid methyl-piperidin-4-yl-amide] | 39%
5 | O=C(c1cc(-c2ccc(O)cc2)nc2[nH]ncc12)N1CCC2(CCNC2)CC1 [Example 43, (2,8-Diaza-spiro[4.5]dec-8-yl)-[6-(4-hydroxy-phenyl)-1H-pyrazolo[3,4-b]pyridin-4-yl]-methanone] | 52%
6 | O=C(c1cc(-c2ccc(O)cc2)nc2[nH]ncc12)N1CCC2(CCNCC2)CC1 [Example 44, (3,9-Diaza-spiro[5.5]undec-3-yl)-[6-(4-hydroxy-phenyl)-1H-pyrazolo[3,4-b]pyridin-4-yl]-methanone] | 44%
7 | O=C(c1cc(-c2ccc(O)cc2)nc2[nH]ncc12)N1CCC2(CC1)CNc1ccccc12 [Example 49] | 28%
8 | O=C(NC1CC2(CCNCC2)c2ccccc21)c1cc(-c2ccc(O)cc2)nc2[nH]ncc12 (stereo not shown) [Example 50, 6-(4-hydroxy-phenyl)-1H-pyrazolo[3,4-b]pyridine-4-carboxylic acid (2,3-dihydrospiro[1H-indene-1,4′-piperidin]-3-yl)-amide] | 97%
9 | CN1CCN(C(=O)c2cc(-c3ccc(O)cc3)nc3[nH]ncc23)CC1 [Example 52, [6-(4-Hydroxy-phenyl)-1H-pyrazolo[3,4-b]pyridin-4-yl]-(4-methyl-piperazin-1-yl)-methanone] | 38%
10 | CC(=O)N1CCN(C(=O)c2cc(-c3ccc(O)cc3)nc3[nH]ncc23)CC1 [Example 53, 1-{4-[6-(4-Hydroxy-phenyl)-1H-pyrazolo[3,4-b]pyridine-4-carbonyl]-piperazin-1-yl}-ethanone] | 46%
11 | O=C(c1cc(-c2ccc(O)cc2)nc2[nH]ncc12)N1CCC[C@H]1CN1CCCC1 [Example 54, [6-(4-Hydroxy-phenyl)-1H-pyrazolo[3,4-b]pyridin-4-yl]-((S)-2-pyrrolidin-1-ylmethyl-pyrrolidin-1-yl)-methanone] | 20%
12 | CC(C)N1CCN(C(=O)c2cc(-c3ccc(O)cc3)nc3[nH]ncc23)CC1 [Example 56, [6-(4-Hydroxy-phenyl)-1H-pyrazolo[3,4-b]pyridin-4-yl]-(4-isopropyl-piperazin-1-yl)-methanone] | 23%
13 | O=C(c1cc(-c2ccc(O)cc2)nc2[nH]ncc12)N1CCN(C(=O)C2CC2)CC1 [Example 57, (4-Cyclopropanecarbonyl-piperazin-1-yl)-[6-(4-hydroxy-phenyl)-1H-pyrazolo[3,4-b]pyridin-4-yl]-methanone] | 28%
14 | O=C(c1cc(-c2ccc(O)cc2)nc2[nH]ncc12)N1CCN(C2CCCCCC2)CC1 [Example 58, (4-Cycloheptyl-piperazin-1-yl)-[6-(4-hydroxy-phenyl)-1H-pyrazolo[3,4-b]pyridin-4-yl]-methanone] | 40%
15 | CC(=O)N1CCCN(C(=O)c2cc(-c3ccc(O)cc3)nc3[nH]ncc23)CC1 [Example 59, 1-{4-[6-(4-Hydroxy-phenyl)-1H-pyrazolo[3,4-b]pyridine-4-carbonyl]-[1,4]diazepan-1-yl}-ethanone] | 48%
16 | O=C(c1cc(-c2ccc(O)cc2)nc2[nH]ncc12)N1CCN(C(=O)C2CCCO2)CC1 (stereo not shown) [Example 61, [6-(4-Hydroxy-phenyl)-1H-pyrazolo[3,4-b]pyridin-4-yl]-[4-(tetrahydro-furan-2-carbonyl)-piperazin-1-yl]-methanone] | 22%

Further lines, results first:

Row | inhibition at 1.14 µM | SMILES
17 | 68% | N[C@H]1C[C@H](NC(=O)c2cc(-c3ccc(O)cc3)nc3[nH]ncc23)C1 [Example 30, 6-(4-Hydroxy-phenyl)-1H-pyrazolo[3,4-b]pyridine-4-carboxylic acid (trans-3-amino-cyclobutyl)-amide]
18 | 69% | O=C(NC1CCNC2(CCC2)C1)c1cc(-c2ccc(O)cc2)nc2[nH]ncc12 (stereo not shown) [Example 32, 6-(4-Hydroxy-phenyl)-1H-pyrazolo[3,4-b]pyridine-4-carboxylic acid (5-aza-spiro[3.5]non-8-yl)-amide]
19 | 87% | NC1CCCC(NC(=O)c2cc(-c3ccc(O)cc3)nc3[nH]ncc23)C1 (stereo not shown) [Example 33, 6-(4-Hydroxy-phenyl)-1H-pyrazolo[3,4-b]pyridine-4-carboxylic acid (3-amino-cyclohexyl)-amide]
20 | 82% | O=C(NC1CNC1)c1cc(-c2ccc(O)cc2)nc2[nH]ncc12 [Example 35, 6-(4-Hydroxy-phenyl)-1H-pyrazolo[3,4-b]pyridine-4-carboxylic acid azetidin-3-ylamide]
21 | 54% | NC1CN(C(=O)c2cc(-c3ccc(O)cc3)nc3[nH]ncc23)C1 [Example 36, (3-Amino-azetidin-1-yl)-[6-(4-hydroxy-phenyl)-1H-pyrazolo[3,4-b]pyridin-4-yl]-methanone]
22 | 91% | CC1CN(C(=O)c2cc(-c3ccc(O)cc3)nc3[nH]ncc23)CCN1 (stereo not shown) [Example 37, [6-(4-Hydroxy-phenyl)-1H-pyrazolo[3,4-b]pyridin-4-yl]-(3-methyl-piperazin-1-yl)-methanone]
23 | 60% | NC1CCN(C(=O)c2cc(-c3ccc(O)cc3)nc3[nH]ncc23)CC1 [Example 38, (4-Amino-piperidin-1-yl)-[6-(4-hydroxy-phenyl)-1H-pyrazolo[3,4-b]pyridin-4-yl]-methanone]
24 | 62% | CNC1CCN(C(=O)c2cc(-c3ccc(O)cc3)nc3[nH]ncc23)C1 (stereo not shown) [Example 39, [6-(4-Hydroxy-phenyl)-1H-pyrazolo[3,4-b]pyridin-4-yl]-(3-methylamino-pyrrolidin-1-yl)-methanone]
25 | 73% | CN1CCCC(NC(=O)c2cc(-c3ccc(O)cc3)nc3[nH]ncc23)C1 (stereo not shown) [Example 41, 6-(4-Hydroxy-phenyl)-1H-pyrazolo[3,4-b]pyridine-4-carboxylic acid (1-methyl-piperidin-3-yl)-amide]
26 | 50% | NC1CCN(C(=O)c2cc(-c3ccc(O)cc3)nc3[nH]ncc23)C1 (stereo not shown) [Example 45, (3-Amino-pyrrolidin-1-yl)-[6-(4-hydroxy-phenyl)-1H-pyrazolo[3,4-b]pyridin-4-yl]-methanone]
27 | 39% | O=C(c1cc(-c2ccc(O)cc2)nc2[nH]ncc12)N1CC2CNCC2C1 (stereo not shown) [Example 46, (Hexahydro-pyrrolo[3,4-c]pyrrol-2-yl)-[6-(4-hydroxy-phenyl)-1H-pyrazolo[3,4-b]pyridin-4-yl]-methanone]
28 | 81% | O=C(c1cc(-c2ccc(O)cc2)nc2[nH]ncc12)N1CC2CC1CN2 (stereo not shown) [Example 47, 2,5-Diaza-bicyclo[2.2.1]hept-2-yl-[6-(4-hydroxy-phenyl)-1H-pyrazolo[3,4-b]pyridin-4-yl]-methanone]
29 | 47% | CN(C)[C@H]1CCN(C(=O)c2cc(-c3ccc(O)cc3)nc3[nH]ncc23)C1 [Example 55, ((S)-3-Dimethylamino-pyrrolidin-1-yl)-[6-(4-hydroxy-phenyl)-1H-pyrazolo[3,4-b]pyridin-4-yl]-methanone]
30 | 54% | CCN1CCCC(NC(=O)c2cc(-c3ccc(O)cc3)nc3[nH]ncc23)C1 (stereo not shown) [Example 60, 6-(4-Hydroxy-phenyl)-1H-pyrazolo[3,4-b]pyridine-4-carboxylic acid (1-ethyl-piperidin-3-yl)-amide]
31 | 73% | CN1CC(NC(=O)c2cc(-c3ccc(O)cc3)nc3[nH]ncc23)C1 [Example 62, 6-(4-Hydroxy-phenyl)-1H-pyrazolo[3,4-b]pyridine-4-carboxylic acid (1-methyl-azetidin-3-yl)-amide]
